Eleven compounds from patent US20210078972A1, “QUINOLINE OR QUINAZOLINE COMPOUND AND APPLICATION THEREOF” (HAIHE BIOPHARMA CO., LTD., priority 2018, published 2021) can be followed below.

Common to all, as to assay type: biochemical
In assay [1] the target is T1, AXL kinase (Homo sapiens, UniProt P30530).
T1 construct: purchased eurofins 14-500
T1 sequence (P30530 473-894 limits assumed): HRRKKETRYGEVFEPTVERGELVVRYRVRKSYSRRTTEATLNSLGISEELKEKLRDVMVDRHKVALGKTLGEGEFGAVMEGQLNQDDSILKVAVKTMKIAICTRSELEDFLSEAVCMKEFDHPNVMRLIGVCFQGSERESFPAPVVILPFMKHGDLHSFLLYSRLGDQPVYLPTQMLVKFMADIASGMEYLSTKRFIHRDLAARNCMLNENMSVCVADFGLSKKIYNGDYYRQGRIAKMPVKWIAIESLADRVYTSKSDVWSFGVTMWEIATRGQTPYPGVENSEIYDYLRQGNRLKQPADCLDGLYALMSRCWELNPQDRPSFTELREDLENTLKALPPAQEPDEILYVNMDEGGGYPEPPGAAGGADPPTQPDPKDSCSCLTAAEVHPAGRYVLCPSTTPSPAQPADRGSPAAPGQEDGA
The assay can be described thus: AXL kinase inhibition, Z'-LYTE FRET. The note with it: ATP 50 μM. From the text:
Detection of the activity of kinase: the inhibitory activities of the compounds against AXL kinase (eurofins, 14-500) were detected through a second-order reaction by the Z′-LYTE™ technology (detected by fluorescence, enzyme-coupled form, based on the difference in a sensitivity of phosphorylated and non-phosphorylated polypeptides to proteolytic cleavage), based on the principle of fluorescence resonance energy transfer (FRET), using Z′-LYTE™ FRET peptide substrate (Z′-LYTE™ Tyrosine 6 Peptide Substrate, Invitrogen, PV4122).
Enzymatic reaction: To a 384-well plate was added 5 μL of enzyme-substrate system (50 mM HEPES, pH 6.5, 0.01% BRU-35, 10 mM MgC2, 1 mM EGTA, 0.02% NaNA), and 5 nL of a compound (concentration gradient) was transferred thereto using an echo520 ultramicro-liquid pipetting system. After the plate was shaken at room temperature for 10-20 min, 25 nL of ATP (a final concentration of 50 μM) was transferred thereto using the echo520 ultramicro-liquid pipetting system. After shaking and well mixing, the mixture was centrifuged and reacted at 30° C. in the dark for 1.5 h.
(§1) The data analysis method is as follows:
(§2) Phosphorylation ratio=1−{(emission ratio×F100%−C100%)/[C0%−C100%+emission ratio×(F100%−F0%)]}×100;
(§3) Inhibition rate=100×(1−compound phosphorylation ratio/negative control phosphorylation ratio).
(§4) The IC50 values were calculated by GraphPad Prism software.

Assay [2] addresses T2, AXL kinase domain recombinant protein (Homo sapiens, UniProt P30530).
T2 construct: the AXL kinase domain recombinant protein (eurofins, 14-512); purchased eurofins 14-512
T2 sequence (P30530 536-807 limits assumed): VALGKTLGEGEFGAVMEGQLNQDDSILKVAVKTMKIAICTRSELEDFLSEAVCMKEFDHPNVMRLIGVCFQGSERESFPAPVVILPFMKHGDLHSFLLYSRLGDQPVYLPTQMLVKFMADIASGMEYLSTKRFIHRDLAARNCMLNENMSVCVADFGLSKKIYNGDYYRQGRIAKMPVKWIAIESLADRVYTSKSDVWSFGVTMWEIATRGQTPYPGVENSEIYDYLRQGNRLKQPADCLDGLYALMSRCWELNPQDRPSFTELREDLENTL
The assay can be described thus: AXL kinase inhibition, ELISA. The conditions noted are these: ATP 5 μM. As to the method: Detection of the activity of kinase: Enzyme-linked immunosorbent assay (ELISA) technology was used to detect the inhibitory activities of the compounds against the kinase. […] After the liquid in the well was discarded, the plate was washed three times with T-PBS (PBS containing 0.1% Tween-20), 200 μL T-PBS per well, 5 minutes for each time. The enzyme label plate was dried in an oven at 37° C. for 1-2 hours. To each well was added 50 μL of ATP solution diluted with reaction buffer (50 mM HEPES, pH 7.4, 50 mM MgCl2, 0.5 mM MnCl2, 0.2 mM Na3VO4, 1 mM DTT) with a final concentration of 5 μM. […] Two wells with no enzyme for control are required for each experiment. The plate was incubated on a shaker (100 rpm) at 37° C. and reacted for 1 hour. The plate was washed three times with T-PBS. 100 μ/well of primary antibody PY99 dilution was added and the plate was reacted in a shaker at 37° C. for 0.5 hour. The plate was washed three times with T-PBS. 100 μ/well of secondary antibody horseradish peroxidase-labeled goat anti-mouse IgG dilution was added and the plate was reacted in a shaker at 37° C. for 0.5 hour. The plate was washed three times with T-PBS. 2 mg/ml of OPD color solution was added with 100 μ/well (diluted with 0.1 M citric acid-sodium citrate buffer (pH=5.4) containing 0.03% H2O2), and the plate was reacted at 25° C. in the dark for 1-10 minutes. (Ultrasound is required for the dissolution of OPD, and the color solution needs to be prepared for immediate use). 50 μ/well of 2 M H2SO4 was added to stop the reaction, and the wavelength-adjustable enzyme-labeling instrument SPECTRA MAX 190 was used to read the data at a wavelength of 490 nm.
The inhibition rate of the sample was obtained by the following formula: […]
The IC50 values were obtained by regression with the four-parameter method using the software attached to the enzyme-labeling instrument.

For assay [3], the target named is T3, Flt3 kinase (Homo sapiens, UniProt P36888).
T3 construct: purchased life PV6253
T3 sequence (P36888 27-993): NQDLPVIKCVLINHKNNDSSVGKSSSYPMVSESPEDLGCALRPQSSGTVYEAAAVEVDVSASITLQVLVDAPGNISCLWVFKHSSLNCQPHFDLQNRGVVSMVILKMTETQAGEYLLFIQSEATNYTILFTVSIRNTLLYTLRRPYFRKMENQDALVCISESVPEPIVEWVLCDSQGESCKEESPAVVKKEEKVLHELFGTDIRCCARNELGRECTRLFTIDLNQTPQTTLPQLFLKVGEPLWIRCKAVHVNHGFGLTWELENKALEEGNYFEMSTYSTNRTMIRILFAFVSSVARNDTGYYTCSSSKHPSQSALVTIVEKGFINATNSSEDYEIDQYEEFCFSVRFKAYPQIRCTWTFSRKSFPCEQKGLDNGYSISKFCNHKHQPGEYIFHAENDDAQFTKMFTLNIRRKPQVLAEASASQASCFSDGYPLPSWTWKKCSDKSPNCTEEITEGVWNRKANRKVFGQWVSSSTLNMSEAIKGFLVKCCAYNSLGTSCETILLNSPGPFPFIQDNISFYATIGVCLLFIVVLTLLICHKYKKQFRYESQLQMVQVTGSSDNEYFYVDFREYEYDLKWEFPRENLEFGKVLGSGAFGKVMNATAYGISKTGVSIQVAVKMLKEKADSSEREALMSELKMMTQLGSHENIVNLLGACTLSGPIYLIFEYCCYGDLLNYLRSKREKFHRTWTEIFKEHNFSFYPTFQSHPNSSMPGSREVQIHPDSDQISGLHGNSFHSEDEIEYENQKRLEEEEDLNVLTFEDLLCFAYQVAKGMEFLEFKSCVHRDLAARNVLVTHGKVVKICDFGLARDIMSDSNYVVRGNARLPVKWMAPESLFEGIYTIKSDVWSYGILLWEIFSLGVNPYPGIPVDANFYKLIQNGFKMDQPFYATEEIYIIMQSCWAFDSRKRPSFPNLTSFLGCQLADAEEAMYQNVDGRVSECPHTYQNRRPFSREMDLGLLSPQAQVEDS
The assay can be described thus: Flt3 kinase inhibition, Z'-LYTE FRET. The conditions noted are these: ATP 500 μM.
Text: Detection of the activity of kinase: the inhibitory activities of the compounds against Flt3 kinase (life, PV6253) were detected through a second-order reaction by the Z′-LYTE™ technology (detected by fluorescence, enzyme-coupled form, based on the difference in a sensitivity of phosphorylated and non-phosphorylated polypeptides to proteolytic cleavage), based on the principle of fluorescence resonance energy transfer (FRET), using Z′-LYTE™ FRET peptide substrate (Z′-LYTE™ Tyrosine 2 Peptide Substrate, Invitrogen, PV3191).
Enzymatic reaction: To a 384-well plate were added 5 μL of enzyme-substrate system (50 mM HEPES, pH 7.5, 0.01% BRU-35, 10 mM MgC2, 1 mM EGTA), 2.5 μL of a compound (concentration gradient) and 2.5 μL of a mixed solution of ATP (a final concentration of a substrate Z′-LYTE™ Tyrosine 2 Peptide Substrate was 2 μM, and a final concentration of ATP was 500 μM), and then the plate was incubated at 37° C. in the dark for 1 h.
Detecting reaction: 5 μL of Development Solution (1:64 dilution) was added to each well and the plate was incubated at 37° C. in the dark for 1 h, then 5 μL of Stop Reagent was added.
as §1, §2, §3, §4

By IC50 is commonly meant the concentration needed to halve the response being measured.

The compound `COc1cc2ncnc(Oc3ccc(NC(=O)c4c(C)n(C)c5ccc(OC(F)(F)F)cc5c4=O)cc3F)c2cc1OCCCN1CCOCC1` [TL-236, N-(3-fluoro-4-((7-methoxy-6-(3-morpholinopropoxy)quinazolin-4-yl)oxy)phenyl)-1,2-dim ethyl-4-oxo-6-(trifluoromethoxy)-1,4-dihydroquinoline-3-carboxamide] displayed an IC50 in assay [1] of 2.4 nM. Still for that read-out and setting: to `COCCCOc1cc2ncnc(Oc3ccc(NC(=O)c4c(C)n(C)c5ccc(OC(F)(F)F)cc5c4=O)cc3F)c2cc1OC` [TL-226, N-(3-fluoro-4-((6-methoxy-7-(3-methoxypropoxy)quinazolin-4-yl)oxy)phenyl)-1,2-dimethyl-4-oxo-6-(trifluoromethoxy)-1,4-dihydroquinoline-3-carboxamide] belongs 4.7 nM. With `COCCOc1cc2ncnc(Oc3ccc(NC(=O)c4c(C)n(C)c5ccc(OC(F)(F)F)cc5c4=O)cc3F)c2cc1OCCOC` [TL-197, N-(4-((6,7-bis(2-methoxyethoxy)quinazolin-4-yl)oxy)-3-fluorophenyl)-1,2-dimethyl-4-oxo-6-(trifluoromethoxy)-1,4-dihydroquinoline-3-carboxamide], the concentration for half-maximal inhibition (IC50) in assay [2] amounted to 4.2 nM; in assay [3] it was 4.7 nM. As for `COc1cc2c(Oc3ccc(NC(=O)c4c(C)n(C)c5ccc(OC(F)(F)F)cc5c4=O)cc3F)ncnc2cc1OCCCN1CCN(C)CC1` [TL-238], the IC50 in assay [1] was 1.2 nM. Turning to `COc1cc2ncnc(Oc3ccc(NC(=O)c4c(C)n(C)c5ccc(OC(F)(F)F)cc5c4=O)cc3F)c2cc1OC` [TL-198, N-(4-((6,7-dimethoxyquinazolin-4-yl)oxy)-3-fluorophenyl)-1,2-dimethyl-4-oxo-6-(trifluoromethoxy)-1,4-dihydroquinoline-3-carboxamide], the IC50 worked out at 2.1 nM in assay [2] and 2.3 nM in assay [3]. Consider `COCCCOc1cc2c(Oc3ccc(NC(=O)c4c(C)n(C)c5ccc(OC(F)(F)F)cc5c4=O)cc3F)ncnc2cc1OC` [TL-199, N-(3-fluoro-4-((7-methoxy-6-(3-methoxypropoxy)quinazolin-4-yl)oxy)phenyl)-1,2-dimethyl-4-oxo-6-(trifluoromethoxy)-1,4-dihydroquinoline-3-carboxamide], for which the values for the IC50 in assay [2] and in assay [3] were 1.8 nM and 25.8 nM, respectively. In the case of `COc1cc2c(Oc3ccc(NC(=O)c4c(C)n(C)c5ccc(OC(F)(F)F)cc5c4=O)cc3F)ncnc2cc1OCCCN1CCCC1` [TL-212, N-(3-fluoro-4-((6-methoxy-7-(3-(pyrrolidin-1-yl)propoxy)quinazolin-4-yl)oxy)phenyl)-1,2-dimethy 1-4-oxo-6-(trifluoromethoxy)-1,4-dihydroquinoline-3-carboxamide], the values for the IC50 in assay [2] and in assay [3] were 1.5 nM and 5.2 nM, respectively. The corresponding values for `COc1cc2c(Oc3ccc(NC(=O)c4c(C)n(C)c5ccc(OC(F)(F)F)cc5c4=O)cc3F)ccnc2cc1OCCCN1CCOCC1` [CCB-310, N-(3-fluoro-4-((6-methoxy-7-(3-morpholinopropoxy)quinolin-4-yl)oxy)phenyl)-1,2-dimethyl-4-oxo-6-(trifluoromethoxy)-1,4-dihydroquinoline-3-carboxamide] are 1.8 nM and 9.5 nM.

As to `COc1cc2c(Oc3ccc(NC(=O)c4c(C)n(C)c5ccc(OC(F)(F)F)cc5c4=O)cc3F)ncnc2cc1OCCN1CCCCC1` [TL-213, N-(3-fluoro-4-((6-methoxy-7-(2-(piperidin-1-yl)ethoxy)quinazolin-4-yl)oxy)phenyl)-1,2-dimethyl-4-oxo-6-(trifluoromethoxy)-1,4-dihydroquinoline-3-carboxamide], the IC50 in assay [2] amounted to 2.2 nM; in assay [3], 6.4 nM. `COc1cc2c(Oc3ccc(NC(=O)c4c(C)n(C)c5ccc(OC(F)(F)F)cc5c4=O)cc3F)ncnc2cc1OCCN1CCOCC1` [TL-209, N-(3-fluoro-4-((6-methoxy-7-(2-morpholinoethoxy)quinazolin-4-yl)oxy)phenyl)-1,2-dimethyl-4-ox o-6-(trifluoromethoxy)-1,4-dihydroquinoline-3-carboxamide]: the half-inhibitory concentration (IC50) was 2 nM in assay [2] and 9.2 nM in assay [3]. In the case of `COCCCCOc1cc2ncnc(Oc3ccc(NC(=O)c4c(C)n(C)c5ccc(OC(F)(F)F)cc5c4=O)cc3F)c2cc1OC` [TL-204, N-(3-fluoro-4-((6-methoxy-7-(4-methoxybutoxy)quinazolin-4-yl)oxy)phenyl)-1,2-dimethyl-4-oxo-6-(trifluoromethoxy)-1,4-dihydroquinoline-3-carboxamide], the IC50 in assay [2] was determined as 1.6 nM; in assay [3], 11.2 nM.
